In article PMC12571071, “Preventing neuropathy and improving anticancer chemotherapy with a carbazole-based compound” (Science Advances, 2025):

Legend:
HeLa cells [1] = experiment: HeLa cell viability (PrestoBlue) assay, 72 h; format: cell-based, human
Description: The human HeLa cell line was tested negative for mycoplasma contamination. HeLa cells were grown in RPMI 1640 medium supplemented with penicillin/streptomycin (100 μg/ml) and 10% FBS and maintained in a humidified incubator at 37°C and 5% CO2.
Cell viability was analyzed using the colorimetric PrestoBlue assay. Cells were seeded in 96-well microplates at a density of 7500 cells per well, allowed to adhere for 24 hours, and treated for 72 hours with either DMSO or drugs at indicated concentrations. PrestoBlue (10 μl) was then added to each well, followed by a 30-min incubation. Fluorescence was measured using a FLUOstar Optima microplate reader (excitation, 544 nm; emission, 580 nm; BMG Labtech).

PTX-induced neuropathy = experiment: Rat model of PTX-induced peripheral neuropathy (von Frey, serum NfL, IENFD); format: in vivo
Description: Control animals received an equivalent volume of the vehicle (cremophor EL:ethanol, 1:1) diluted 1:4 in 0.9% NaCl.
Carba1 was injected intraperitoneally six times (50 mg/kg) on days 0, 1, 2, 4, 7, and 9, resulting in a cumulative dose of 300 mg/kg (Fig. 2F). For each injection, Carba1 was injected intraperitoneally at 50 mg/kg on days 0, 1, 2, 4, 7, and 9, for a cumulative dose of 300 mg/kg, using a stock solution (150 mg/ml; cremophor EL:ethanol, 1:1) diluted to 50 mg/ml in 0.9% NaCl. Control animals for Carba1 received the same volume of the vehicle [cremophor EL:ethanol (1:1) diluted 1:3 in 0.9% NaCl]. […] To prevent cross-exposure through feces and urine, treatment groups were randomized by cage, with each cage housing three animals.
Tactile allodynia, a common sensory disorder reported in animal models of CIPN ([56]), was assessed using an electronic von Frey test (Bioseb) ([68]). Rats were placed in plastic compartments on a wire floor and allowed to habituate for 15 min. […] The maximum force (in grams) causing withdrawal was recorded automatically. The average of two measurements, not differing by more than 10 g, was used as the nociceptive threshold ([68]). Rats were habituated to the compartments 3 days before the first injection, and the experimenter was blinded to treatment groups.
Blood samples were collected on day 15 in vials with a clot activator, left at R.T. for up to 1 hour before centrifugation at 4100 rpm at 20°C for 10 min. Serum was then collected, aliquoted, and stored at −80°C until analysis. To reduce batch effects, serum samples were randomized on assay plates. NfL concentration was measured in the serum using commercial kits (Simple Plex Ella ProteinSimple, USA; Rat NfL Kit ProteinSimple) ([27]).
Skin samples from both hind paws were fixed in 4% PFA overnight at 4°C, followed by sucrose cryoprotection (10, 20, and 30%) at 4°C overnight. After embedding in tissue freezing medium, the samples were at −80°C. Sections (20 μm) were cut using a cryostat at −17°C, washed with PBS for 5 min, and dried. The sections were blocked in PBS/0.2% Triton X-100/1%BSA for 1 hour and then incubated overnight at R.T. with anti-PGP9.5 antibody (1:400). After washing with PBS, sections were incubated with goat anti-rabbit Alexa Fluor488 secondary antibody for 2 hours, and the nuclei were stained with DAPI. Imaging was performed by acquiring 0.5 μm Z-stacks and exposure times for DAPI and fluorescein isothiocyanate set to 600 ms. Quantification followed the method described by Lauria et al. ([69]).

HeLa cells [2] = experiment: 1H NMR metabolomic profiling of HeLa cells; format: cell-based, human; details: 12 μM, 2 hours
Description: HeLa cells (1 × 10^6) were seeded in Ø100-mm cell culture dishes and allowed to adhere for 48 hours. Cells were then treated with DMSO or 12 μM Carba1 for 2 hours at 37°C and 5% CO2. After treatment, the medium was removed, and cells were washed with PBS at R.T. before quenching with methanol at −20°C and scrapping ([70]). Dried extracts were obtained by evaporating the solvent under gentle N2 flow and stored at −80°C until analysis. For NMR, extracts were resuspended in 620 μl of 100% D2O phosphate buffer (pH 7.4), and 550 μl was transferred into 5-mm NMR tubes. Untargeted NMR analysis was performed at 27°C on a Bruker Avance IVDr spectrometer (600 MHz, ^1H resonance) with a conventional Broadband Inverse (BBI) probe. ^1H metabolic profiles were acquired using a NOESY experiment with water presaturation (Bruker pulse program noesygppr1d) and a spectral width of 11,904.792 Hz. Experimental parameters included a 10-ms mixing time, 2-s acquisition time, 3-s recycle delay, and 512 scans. The 90°s pulse length was calibrated at ~11.09 μs per sample after automatic shimming and tuning. NMR free induction decays were multiplied by an exponential function corresponding to a line broadening of 0.3 Hz before Fourier transform. […]

[3] = rat serum, day 15, outliers removed

Cc1cc(-n2cccc2)c(C)c2c1[nH]c1ccc(Cl)cc12 [Compound 1]
relief of FK866 cytotoxicity (HeLa cells [1]; HeLa cells, coadministration with FK866): counteracted the toxic effect of FK866 in a dose-dependent manner | GI50 (HeLa cells [1]; Homo sapiens, HeLa, cell viability, compound alone, read-out: GI50): > 25 µM | GI50 FK866 with carbazole/GI50 FK866 (HeLa cells [1]; ratio at the highest noncytotoxic dose of carbazole analog, readout of NAMPT activation): 2.6 | GI50 PTX/GI50 PTX with carbazole (HeLa cells [1]; ratio at the highest noncytotoxic dose of carbazole analog, synergy with PTX): 2.5 | IENFD, mean (PTX-induced neuropathy; rat hind paw biopsies, day 15): 19.54 number/mm | IENFD, median (PTX-induced neuropathy; rat hind paw biopsies, day 15): 19.88 number/mm | NfL, mean (PTX-induced neuropathy; [3]): 22.14 pg/mL | NfL, median (PTX-induced neuropathy; [3]): 22.40 pg/mL | effect on PTX-induced tactile allodynia (PTX-induced neuropathy; rat, Carba1 50 mg/kg i.p. x6 with PTX 5 mg/kg i.p. x4): prevents PTX-induced tactile allodynia | effect on PTX-induced intraepidermal nerve fiber degeneration (PTX-induced neuropathy; rat, Carba1 cotreatment with PTX): prevented PTX-induced intraepidermal nerve fiber degeneration | tactile allodynia (paw withdrawal threshold, electronic von Frey), agent alone (PTX-induced neuropathy; rat, i.p., PTX 5 mg/kg x4 or Carba1 50 mg/kg x6): not analgesic | reduction of IENFD, agent alone (PTX-induced neuropathy; rat, vs controls): had no effect | GTP levels (HeLa cells [2]): significant increase | NAD+ abundance (HeLa cells [2]): significant decrease
